Values quoted from earlier work as cited in patent publication US4127535A, “Novel dipeptides, intermediates therefor, and compositions and methods employing said dipeptides” (priority 1977, dated 1978).

Legend:
[1] = system: partially purified brain opiate receptor sites; conditions: literature, Bradbury et al.
[2] = literature
[3] = injected directly into the brain of the rat; Belluzzi et al.

H-Tyr-Gly-Gly-Phe-Met-OH [methionine enkephalin]
binding to partially purified brain opiate receptor sites [1]: binds stereo-specifically | activity in bioassays for opiate activity [2]: very active | analgesic activity [3]: weak analgesic agent of short duration
